Measured values: patent US8273890B2 (4SC AG, priority 2007, dated 2012)

Each compound was assayed against T1, recombinant Plk1 protein (Homo sapiens, UniProt P53350) (assay: Plk1 kinase activity inhibition assay (33P-ATP, alpha casein substrate, flash plates)). Settings: enzymatic assay, 100 nM Li-ATP, 80 minutes at 30° C.
T1 construct: histidine tag (N); made in house; host or cells: SF9 insect cells
Type: biochemical
Summary of the method: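 N-terminally His-tagged human Plk1 from SF9 cells (50–100 ng/well) phosphorylated alpha casein (500 ng/well) with 100 nM ATP including 33P-ATP at pH 7.5, with Mg2+ and Mn2+, 80 min at 30 °C. 33P incorporation read on scintillator-coated flash plates; IC50 derived.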

T1 sequence (P53350 whole entry): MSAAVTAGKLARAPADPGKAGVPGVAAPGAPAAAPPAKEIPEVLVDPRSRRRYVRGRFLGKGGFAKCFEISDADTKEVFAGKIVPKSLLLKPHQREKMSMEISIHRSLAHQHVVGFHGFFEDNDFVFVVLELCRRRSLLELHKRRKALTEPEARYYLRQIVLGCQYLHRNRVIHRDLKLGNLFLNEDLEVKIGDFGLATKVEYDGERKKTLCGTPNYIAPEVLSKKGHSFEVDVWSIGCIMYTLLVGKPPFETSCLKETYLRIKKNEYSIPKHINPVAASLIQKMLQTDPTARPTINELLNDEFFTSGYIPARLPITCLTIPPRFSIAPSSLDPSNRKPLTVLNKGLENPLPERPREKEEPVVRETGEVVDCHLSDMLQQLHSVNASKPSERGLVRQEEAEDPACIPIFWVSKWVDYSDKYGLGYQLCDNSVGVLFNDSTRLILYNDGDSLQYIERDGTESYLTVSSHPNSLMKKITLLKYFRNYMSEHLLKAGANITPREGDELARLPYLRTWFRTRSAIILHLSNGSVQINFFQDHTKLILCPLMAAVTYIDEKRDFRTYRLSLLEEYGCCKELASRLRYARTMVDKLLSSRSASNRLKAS

Row | IC50 [nM] | Structure (SMILES)
1 | 10 to 100 | CCN1CCN(Cc2cc3c(cn2)ncn3-c2cc(OC(C)c3ccccc3F)c(C(N)=O)s2)CC1 (centres unmarked) [Example 152, 5-{6-[(4-ethylpiperazin-1-yl)methyl]-1H-imidazo[4,5-c]pyridin-1-yl}-3-[1-(2-fluorophenyl)ethoxy]thiophene-2-carboxamide]
2 | 10 to 100 | NC(=O)c1sc(-n2cnc3cnccc32)cc1OCc1ccc(F)cc1C(F)(F)F [Example 34, 3-{[4-fluoro-2-(trifluoromethyl)benzyl]oxy}-5-(1H-imidazo[4,5-c]pyridin-1-yl)thiophene-2-carboxamide]
3 | 100 to 1000 | CCNCc1cc2ncn(-c3cc(O[C@H](C)c4ccccc4C(F)(F)F)c(C(N)=O)s3)c2cn1 [Example 117, 5-{6-[(ethylamino)methyl]-3H-imidazo[4,5-c]pyridin-3-yl}-3-{(1R)-1-[2-(trifluoromethyl)phenyl]ethoxy}thiophene-2-carboxamide]
4 | 10 to 100 | C[C@@H](Oc1cc(-n2cnc3cnc(CN4CCN(S(=O)(=O)c5ccccc5)CC4)cc32)sc1C(N)=O)c1ccccc1C(F)(F)F [Example 58, 5-(6-{[4-(phenylsulfonyl)piperazin-1-yl]methyl}-1H-imidazo[4,5-c]pyridin-1-yl)-3-{(1R)-1-[2-(trifluoromethyl)phenyl]ethoxy}thiophene-2-carboxamide]
5 | 10 to 100 | CCNCc1cc2c(cn1)ncn2-c1cc(O[C@H](C)c2ccccc2C(F)(F)F)c(C(N)=O)s1 [Example 112, 5-{6-[(ethylamino)methyl]-1H-imidazo[4,5-c]pyridin-1-yl}-3-{(1R)-1-[2-(trifluoromethyl)phenyl]ethoxy}thiophene-2-carboxamide]
6 | 10 to 100 | CCN1CCN(Cc2cc3c(cn2)ncn3-c2cc(OC(C)c3ccccc3C)c(C(N)=O)s2)CC1 (centres unmarked) [Example 150, 5-{6-[(4-ethylpiperazin-1-yl)methyl]-1H-imidazo[4,5-c]pyridin-1-yl}-3-[1-(2-methylphenyl)ethoxy]thiophene-2-carboxamide]
7 | < 10 | C[C@@H](Oc1cc(-n2cnc3cnc(CNC4CCN(C)CC4)cc32)sc1C(N)=O)c1ccccc1C(F)(F)F [Example 73, 5-(6-{[(1-methylpiperidin-4-yl)amino]methyl}-1H-imidazo[4,5-c]pyridin-1-yl)-3-{(1R)-1-[2-(trifluoromethyl)phenyl]ethoxy}thiophene-2-carboxamide]
8 | 100 to 1000 | NC(=O)c1sc(-n2cnc3cnc(C(=O)NCCN4CCOCC4)cc32)cc1OCc1ccccc1C(F)(F)F [Example 5, 1-(5-Carbamoyl-4-{[2-(trifluoromethyl)benzyl]oxy}-2-thienyl)-N-(2-morpholin-4-ylethyl)-1H-imidazo[4,5-c]pyridine-6-carboxamide]
9 | 10 to 100 | CCC(Oc1cc(-n2cnc3cnc(CN4CCN(C)CC4)cc32)sc1C(N)=O)c1ccccc1Cl (centres unmarked) [Example 102, 3-{[1-(2-chlorophenyl)propyl]oxy}-5-{6-[(4-methylpiperazin-1-yl)methyl]-1H-imidazo[4,5-c]pyridin-1-yl}thiophene-2-carboxamide]
10 | 10 to 100 | COc1cc2ncn(-c3cc(OCc4ccccc4C(F)(F)F)c(C(N)=O)s3)c2nc1OC [Example 21B, 5-(5,6-Dimethoxy-3H-imidazo[4,5-b]pyridin-3-yl)-3-{[2-(trifluoromethyl)benzyl]oxy}thiophene-2-carboxamide]
11 | 10 to 100 | C[C@@H](Oc1cc(-n2cnc3cnc(CN4CCN(S(=O)(=O)N(C)C)CC4)cc32)sc1C(N)=O)c1ccccc1C(F)(F)F [Example 71, 5-[6-({4-[(dimethylamino)sulfonyl]piperazin-1-yl}methyl)-1H-imidazo[4,5-c]pyridin-1-yl]-3-{(1R)-1-[2-(trifluoromethyl)phenyl]ethoxy}thiophene-2-carboxamide]
12 | 10 to 100 | C[C@@H](Oc1cc(-n2cnc3cnc(CNC4CCC4)cc32)sc1C(N)=O)c1ccccc1C(F)(F)F [Example 105, 5-{6-[(cyclobutylamino)methyl]-1H-imidazo[4,5-c]pyridin-1-yl}-3-{(1R)-1-[2-(trifluoromethyl)phenyl]ethoxy}thiophene-2-carboxamide]
13 | 10 to 100 | C[C@@H](Oc1cc(-n2cnc3cnc(CN4CCN(CC(=O)N(C)C)CC4)cc32)sc1C(N)=O)c1ccccc1C(F)(F)F [Example 87, 5-[6-({4-[2-(dimethylamino)-2-oxoethyl]piperazin-1-yl}methyl)-1H-imidazo[4,5-c]pyridin-1-yl]-3-{(1R)-1-[2-(trifluoromethyl)phenyl]ethoxy}thiophene-2-carboxamide]
14 | < 10 | C[C@@H](Oc1cc(-n2cnc3cnc(CN4CCC(N(C)C)CC4)cc32)sc1C(N)=O)c1ccccc1C(F)(F)F [Example 65, 5-(6-{[4-(dimethylamino)piperidin-1-yl]methyl}-1H-imidazo[4,5-c]pyridin-1-yl)-3-{(1R)-1-[2-(trifluoromethyl)phenyl]ethoxy}thiophene-2-carboxamide]
15 | < 10 | C[C@@H](Oc1cc(-n2cnc3cnc(CN4CCC(N(C)C)C4)cc32)sc1C(N)=O)c1ccccc1C(F)(F)F (stereo partly drawn) [Example 144, 5-(6-{[3-(dimethylamino)pyrrolidin-1-yl]methyl}-1H-imidazo[4,5-c]pyridin-1-yl)-3-{(1R)-1-[2-(trifluoromethyl)phenyl]ethoxy}thiophene-2-carboxamide]
16 | 10 to 100 | C[C@@H](Oc1cc(-n2cnc3cnc(CN4CCS(=O)(=O)CC4)cc32)sc1C(N)=O)c1ccccc1C(F)(F)F [Example 63, 5-{6-[(1,1-dioxidothiomorpholin-4-yl)methyl]-1H-imidazo[4,5-c]pyridin-1-yl}-3-{(1R)-1-[2-(trifluoromethyl)phenyl]ethoxy}thiophene-2-carboxamide]
17 | < 10 | CN1CCN(Cc2cc3c(cn2)ncn3-c2cc(OC(c3ccccc3Cl)C(F)(F)F)c(C(N)=O)s2)CC1 (centres unmarked) [Example 76, 3-[1-(2-chlorophenyl)-2,2,2-trifluoroethoxy]-5-{6-[(4-methylpiperazin-1-yl)methyl]-1H-imidazo[4,5-c]pyridin-1-yl}thiophene-2-carboxamide]
18 | < 10 | CCN1CCN(Cc2cc3c(cn2)ncn3-c2cc(OC(C)c3ccccc3OC(F)F)c(C(N)=O)s2)CC1 (centres unmarked) [Example 135, 3-{1-[2-(difluoromethoxy)phenyl]ethoxy}-5-{6-[(4-ethylpiperazin-1-yl)methyl]-1H-imidazo[4,5-c]pyridin-1-yl}thiophene-2-carboxamide]
19 | < 10 | C[C@@H](Oc1cc(-n2cnc3cnc(CN4C[C@@H]5C[C@H]4CN5)cc32)sc1C(N)=O)c1ccccc1C(F)(F)F [Example 95, 5-{6-[(1S,4S)-2,5-diazabicyclo[2.2.1]hept-2-ylmethyl]-1H-imidazo[4,5-c]pyridin-1-yl}-3-{(1R)-1-[2-(trifluoromethyl)phenyl]ethoxy}thiophene-2-carboxamide]
20 | < 10 | CC(Oc1cc(-n2cnc3cnc(CO)cc32)sc1C(N)=O)c1ccc(C#N)cc1Cl (centres unmarked) [Example 123, 3-[1-(2-chloro-4-cyanophenyl)ethoxy]-5-[6-(hydroxymethyl)-1H-imidazo[4,5-c]pyridin-1-yl]thiophene-2-carboxamide]
21 | 10 to 100 | C[C@@H](Oc1cc(-n2cnc3cnc(CN4CCN(C(=O)c5ccccc5)CC4)cc32)sc1C(N)=O)c1ccccc1C(F)(F)F [Example 78, 5-{6-[(4-benzoylpiperazin-1-yl)methyl]-1H-imidazo[4,5-c]pyridin-1-yl}-3-{(1R)-1-[2-(trifluoromethyl)phenyl]ethoxy}thiophene-2-carboxamide]
22 | < 10 | CC(Oc1cc(-n2cnc3cnc(CN4CCN(C)CC4)cc32)sc1C(N)=O)c1ccc(F)cc1C(F)(F)F (centres unmarked) [Example 97, 3-{1-[4-fluoro-2-(trifluoromethyl)phenyl]ethoxy}-5-{6-[(4-methylpiperazin-1-yl)methyl]-1H-imidazo[4,5-c]pyridin-1-yl}thiophene-2-carboxamide]
23 | 10 to 100 | NC(=O)c1sc(-n2cnc3cnccc32)cc1OCc1ccccc1F [Example 40, 3-[(2-fluorobenzyl)oxy]-5-(1H-imidazo[4,5-c]pyridin-1-yl)thiophene-2-carboxamide]
24 | < 10 | CC(Oc1cc(-n2cnc3cc(CO)ncc32)sc1C(N)=O)c1ccccc1Cl (centres unmarked) [Example 125, 3-[-1-(2-chlorophenyl)ethoxy]-5-[6-(hydroxymethyl)-3H-imidazo[4,5-c]pyridin-3-yl]thiophene-2-carboxamide]
25 | < 10 | CC(Oc1cc(-n2cnc3cnc(CN4CCN(C)CC4)cc32)sc1C(N)=O)c1ccccc1C(F)(F)F (centres unmarked) [Example 45, 5-{6-[(4-methylpiperazin-1-yl)methyl]-1H-imidazo[4,5-c]pyridin-1-yl}-3-{-1-[2-(trifluoromethyl)phenyl]ethoxy}thiophene-2-carboxamide]
26 | 10 to 100 | C[C@@H](Oc1cc(-n2cnc3cnc(CN4CCOCC4)cc32)sc1C(N)=O)c1ccccc1C(F)(F)F [Example 62, 5-[6-(morpholin-4-ylmethyl)-1H-imidazo[4,5-c]pyridin-1-yl]-3-{(1R)-1-[2-(trifluoromethyl)phenyl]ethoxy}thiophene-2-carboxamide]
27 | 10 to 100 | C[C@H](Oc1cc(-n2cnc3cnc(CN4CCN(C)CC4)cc32)sc1C(N)=O)c1ccccc1C(F)(F)F [Example 48, 5-{6-[(4-methylpiperazin-1-yl)methyl]-1H-imidazo[4,5-c]pyridin-1-yl}-3-{(1S)-1-[2-(trifluoromethyl)phenyl]ethoxy}thiophene-2-carboxamide]
28 | 100 to 1000 | CCN(CC)Cc1cc2c(cn1)ncn2-c1cc(OCc2ccccc2C(F)(F)F)c(C(N)=O)s1 [Example 6, 5-{6-[(Diethylamino)methyl]-1H-imidazo[4,5-c]pyridin-1-yl}-3-{[2-(trifluoromethyl)benzyl]oxy}thiophene-2-carboxamide]
29 | < 10 | C[C@@H](Oc1cc(-n2cnc3cnc(CN4CCC(O)CC4)cc32)sc1C(N)=O)c1ccccc1C(F)(F)F [Example 64, 5-{6-[(4-hydroxypiperidin-1-yl)methyl]-1H-imidazo[4,5-c]pyridin-1-yl}-3-{(1R)-1-[2-(trifluoromethyl)phenyl]ethoxy}thiophene-2-carboxamide]
